According to patent publication US11992497B2 (priority 2021, dated 2024):
Where two headings read alike, the source gives them in different places.

What was measured:
[1] = PK study of CBG, Compound 1 and Compound 2, PO or IP; assay type: in vivo, male Sprague Dawley rats; details: CBG 30 mg/kg PO and IP; Compound 1 31.5 mg/kg PO; Compound 2 32.7 mg/kg PO
Experimental: This study evaluated the pharmacokinetics of (E)-2-(3,7-dimethylocta-2,6-dien-1-yl)-3-methoxy-5-pentylphenol (1) and (E)-2-(3,7-dimethylocta-2,6-dien-1-yl)-1,3-dimethoxy-5-pentylbenzene (2) following oral (PO) or intraperitoneal (IP) administration to male Sprague Dawley rats.
For the oral formulation the test article was added to the appropriate amount of Maisine and stirred until uniform. Next Labrasol was added to the formulation and allowed to stir until uniform. Finally, water will be slowly added to the stirring formulation to achieve the final volume.
For the IP formulation the test article was added to the appropriate amount of ethanol and stirred until uniform. Next, the appropriate amount of tween-20 was added to the stirred formulation. Finally, the appropriate amount of saline was slowly added to the stirred formulation to achieve the final volume.
Animals were fasted the evening prior to dosing with food returned at 4 h postdose, and the animals weighed on the morning of dose administration.
IP doses were administered via injection to the intraperitoneal region. PO doses were delivered into the stomach via syringe and gavage tube.
Blood was collected from via direct jugular stick or from the tail vein. Blood samples were kept on ice until being centrifuged at 3200 RPM for 10 minutes at ˜5° C. within 1 h of collection. Plasma was split into 2 cryovials in approximately equal volumes (0.05 mLs) and stored at −20° C.±5° C. until shipment.

[2] = system: indomethacin induced intestinal injury; test: Indomethacin-induced Crohn's disease in rats; assay type: in vivo; details: for small intestine weight compared to vehicle: all three treatment groups (50, 200, 800 mg/kg PO, days 0-3); for body weight change (prevention of weight loss): all treatment groups (50, 200, 800 mg/kg PO, days 0-3), vs dexamethasone (Compound 2: also vehicle)
Experimental: The objective of this study was to determine the efficacy of Compound 1 and Compound 2 in a model of Crohn's disease (indomethacin induced intestinal injury) in rats.
The study design was identical for Compound 1 and Compound 2. On study day −3, rats were weighed and distributed into treatment groups based on body weight.
On study day 0, treatment was initiated and continue as indicated in the Study Design Tables below. Groups 2-6 received a subcutaneous injection of indomethacin (9 mg/kg, 1 ml/kg) in 5% sodium bicarbonate (Sterile Water). On study day 1, Groups 2-6 received a second subcutaneous injection of indomethacin (8 mg/kg, 1 ml/kg) in 5% sodium bicarbonate (Sterile Water). Live phase sample & data collection specifics are outlined below. On study day 4, animals will be euthanized, a section of the small intestine will be removed and weighed. Further necropsy sample and data collection is specified below. Overall efficacy of test articles will be based on body weight, small intestine weight (10 cm), small intestine gross score, and histopathology
At necropsy, the small intestines were evaluated visually and given a gross score according to the following criteria: ⋅0=Normal. 0.5=Very Minimal thickening, multifocal in area at risk. 1=Minimal thickening, fairly diffuse in area at risk. 2=Mild to moderate small intestinal/mesenteric thickening throughout area at risk. 3=Moderate thickening with 1 or more definite adhesions that would be easy to separate. 4=Marked thickening with numerous hard to separate adhesions. 5=Severe intestinal lesion resulting in death.
Preserved 9-cm sections of small intestine were trimmed into 6 transverse sections collected at approximately equal intervals along the […] of the intestine, without bias toward lesion presence or absence. These trimmed sections were processed through graded alcohols and a clearing agent, infiltrated and embedded in paraffin, sectioned, and stained with hematoxylin and eosin (H&E).
Small intestine sections from all animals were examined microscopically by a board-certified veterinary pathologist, and observations were entered into a computer-assisted data retrieval system. Cross sections of small intestine were scored for inflammation and necrosis using the following criteria:
The area at risk for development of this lesion is generally approximately 30% of the total area of a cross section of small intestine where the mesentery attaches.
Inflammation is localized to the mesentery and intestinal area at risk for necrosis with slight extension on either side of it. […] In this case, inflammation is scored based on overall severity ranging from 0.5 (very minimal) to 5 (severe) without regard for the extent of necrosis. The mean score for necrosis and inflammation was calculated for each animal and these mean scores were then summed to arrive at a total score. Each section also has a measurement of total width of mucosal necrosis.

[3] = system: HCT116; test: GI50 by clonogenic assay; assay type: cell-based; details: Homo sapiens
Experimental: For colonogenic assay, the compounds were tested at 4 concentrations for 1 week or 2 weeks on 4 colon cancer cell lines. The compounds, concentrations, colon cancer cell line panel and end time point tested are the following: • CBG: 0 μM, 10 μM, 20 μM, 40 μM, and 80 μM. • Compound 1: 0 μM, 5 μM, 7.5 μM, 10 μM, and 20 μM. • Compound 2: 0 μM, 10 μM, 20 μM, 40 μM, and 80 μM. • Colon cancer cell line panel and end time point: SW620, HCT15, HCT116, 1 week; HT29, 2 weeks
Four colon cancer cell lines of SW620, HCT15, HT29, and HCT116 were included in the colon cancer cell line panel.
CBG, compound 1 and compound 2 were dissolved in DMSO at a concentration of 10 mM and stored at −20° C.
Evaluation of DM compounds treatment-induced growth inhibition was performed to determine the GI50 of four colon cancer cell lines with MTS assay or clonogenic assay. Each experiment was repeated in triplicate. In GraphPad Prism, data were log-transformed and fit with a nonlinear curve to calculate the GI50.
Clonogenic assay. cells were plated at 6 well plates at a density of 2,500 cells per well. After 24 hours, cells were treated with DM compounds at increasing concentrations or DMSO vehicle and incubated for 1 week or 2 weeks. Cells were then fixed and stained with 1% crystal violet (Sigma-Aldrich) solution. Quantification was performed using ImageJ. Each experiment was repeated in triplicate. In GraphPad Prism, data were log-transformed and fit with a nonlinear curve to calculate the GI50.

[4] = Compound 1 Group 5 (200 mg/kg PO)
[5] = Compound 1 Groups 4 and 5 (50, 200 mg/kg PO)
[6] = HCT-116, 168 h, HCT116 cells, 1 week, read-out: GI50 (clonogenic assay)
[7] = HCT-116, clonogenic assay, HCT116, average of N1-N3, read-out: GI50 AVG
[8] = HCT-116, clonogenic assay, HCT116, replicate N1, read-out: GI50 N1
[9] = HCT-116, clonogenic assay, HCT116, replicate N2, read-out: GI50 N2
[10] = HCT-116, clonogenic assay, HCT116, replicate N3, read-out: GI50 N3

CCCCCc1cc(O)c(C/C=C(\C)CCC=C(C)C)c(OC)c1 [Compound 1, (E)-2-(3,7-dimethylocta-2,6-dien-1-yl)-3-methoxy-5-pentylphenol]
glucuronidation / glucuronide formation in plasma (in words) [1]: significantly reduced levels of glucuronidation compared to CBG | histopathology scores vs vehicle and dexamethasone [2, 4]: significantly lower | necrosis width vs vehicle and dexamethasone [2, 4]: significantly lower | Histopathology scores vs vehicle and positive control [2, 5]: trended lower | necrosis width vs vehicle and positive control [2, 5]: trended lower | small intestine gross score compared to vehicle ([2]; Group 4 (50 mg/kg PO)): trend in lower small intestine gross score | small intestine gross score compared to vehicle ([2]; Groups 5-6 (200, 800 mg/kg PO)): significant reductions | small intestine weight compared to vehicle [2]: significantly lower | body weight change (prevention of weight loss) [2]: trended towards or had significant differences in preventing weight loss | GI50 [3, 6]: 5.51 ± 1.51 µM | GI50 [3, 7]: 5.51 µM | GI50 [3, 8]: 4.79 µM | GI50 [3, 9]: 7.61 µM | GI50 [3, 10]: 4.12 µM

CCCCCc1cc(O)c(C/C=C(\C)CCC=C(C)C)c(O)c1 [CBG, cannabigerol]
glucuronidation / glucuronide formation in plasma (in words) [1]: converted by glucuronidation to CBG-glucoronide | GI50 [3, 6]: 17.4 ± 4.91 µM | GI50 [3, 7]: 17.4 µM | GI50 [3, 8]: 21.1 µM | GI50 [3, 9]: 20.7 µM | GI50 [3, 10]: 10.5 µM

CCCCCc1cc(OC)c(C/C=C(\C)CCC=C(C)C)c(OC)c1 [Compound 2, (E)-2-(3,7-dimethylocta-2,6-dien-1-yl)-1,3-dimethoxy-5-pentylbenzene]
glucuronidation / glucuronide formation in plasma (in words) [1]: completely blocked glucuronide formation | reduction of necrosis width, of vehicle ([2]; Compound 2 Group 5): 99% | histopathology scores vs vehicle and dexamethasone ([2]; Compound 2 Group 5 & 6): significantly lower | necrosis width vs vehicle and dexamethasone ([2]; Compound 2 Group 5 & 6): significantly lower | reduction of necrosis width, of vehicle ([2]; Compound 2 Group 6): 96% | Histopathology scores vs vehicle ([2]; Compound 2 Groups 4-6): lower than the vehicle | necrosis width vs vehicle ([2]; Compound 2 Groups 4-6): lower than the vehicle | small intestine gross score compared to vehicle ([2]; Group 4 (50 mg/kg PO)): trend in lower small intestine gross score | small intestine gross score compared to vehicle ([2]; Groups 5-6 (200, 800 mg/kg PO)): significant reductions | small intestine weight compared to vehicle [2]: significantly lower | body weight change (prevention of weight loss) [2]: trended towards or had significant differences in preventing weight loss | GI50 [3, 6]: 43.1 ± 7.68 µM | GI50 [3, 7]: 43.1 µM | GI50 [3, 8]: 53.4 µM | GI50 [3, 9]: 40.6 µM | GI50 [3, 10]: 35.1 µM
